Reference: publication PMC9924185, “A validated LC–MS/MS method for clinical pharmacokinetics and presumptive phase II metabolic pathways following oral administration of Andrographis paniculata extract” (Scientific Reports, 2023)
Read-outs that look alike come from different tables or passages of the source.

How the values were obtained:
[1] = plasma
Procedure: (§4) The stability of plasma and urine samples were evaluated at three different QC concentration levels (LQC, MQC and HQC, n = 3 for each level); the conditions were freeze–thaw stability, long-term stability, short-term stability, and post preparative stability in an autosampler. The evaluation of stability under freeze–thaw condition was carried out over five cycles of − 80 °C for at least 12 h of each cycle. Long-term stability was analyzed after storing the samples at − 80 °C. Short-term stability of each analyte, for up to 8 h during processing on the bench at room temperature, was also evaluated. For evaluation of post-preparative stability, the extracted samples were stored at ambient temperature (4 °C) in an autosampler for 24 h. The analyte was considered as a stable sample when the average percentage of accuracy of the QC sample was in the range of 85–115% and the %CV was not over 15%.

[2] = Stability in urine under different storage conditions; type: physicochemical, human
Procedure: as §4

[3] = Clinical pharmacokinetics in plasma after single oral administration of A. paniculata extract; type: in vivo, human; details: for Cmax / AUC(0-t) / Vd/F / Tmax / half-life: human, parent compound in plasma, single oral dose of extract (60 mg andrographolide); for Cmax: healthy subjects n = 4; for Cmax / AUC(0-t) / Vd/F: mean ± SD; for AUC(0-t) / Vd/F / Tmax / half-life: n = 4; for Tmax / half-life: median; for AUC of both conjugated metabolites compared to the respective parent compounds: plasma, single oral dose of extract
Procedure: (§1) An aliquot of 50 µL of plasma or urine was placed in a 1.5 mL of polypropylene centrifuge micro-tube. Protein was removed from the sample by adding 200 µL of methanol (containing 50.00 ng/mL of IS). The mixture was vortexed for 10 min and was then centrifuged at 12,000 rpm, 4 °C for 10 min. The supernatant was filtered through a […] PVDF membrane (Chrom Tech) and transferred into a glass insert in a vial before LC‑MS/MS analysis.
(§2) The clinical pharmacokinetic study was designed as an open-labeled, with a single oral dosing, and conducted under a fasting condition. Four healthy subjects were recruited according to the following inclusion criteria: 18—55 years old with a body mass index (BMI) of 18–30 kg/m^2. Study participants were identified as healthy based on laboratory testing and physical examinations. The participants received 3 capsules containing A. paniculata extract (calculated as 60 mg of andrographolide/dose) before breakfast with 240 mL of drinking water. Blood samples, in EDTA tubes, were taken after oral administration at 0, 10, 20, 30, 45 min, and 1, 1.5, 2, 4, 6, 8, 10, 12, 24 h post dose. All blood samples were then centrifuged at 4000 ± 100 rpm, 4 °C for 5 min. Plasma was pipetted and stored in cryotubes at − 80 °C until further analysis. Urine samples were collected during 0–4, 4–8, 8–12, 12–24, 24–32, 32–40 and 40–48 h after dosing and were then kept at − 80 °C before sample extraction.
Pharmacokinetic parameters were determined by non-compartmental analysis using PK solutions software, version 2.0 (Summit Research Services). The maximum concentration of four targeted compounds (Cmax) and the time to reach maximum concentration (Tmax) were taken directly from the individual plasma concentration versus time profiles. The area under the curve from time zero to the last sampling time (AUC0-t) was estimated using the linear trapezoidal rule. The apparent volume of distribution (Vd/F) and the elimination half-life (t1/2) were determined using non-compartmental analysis.
(§3) Finally, the hydrolysis of glucuronide metabolites in the pharmacokinetic study was performed according to the following process: 50 µL of plasma or urine sample was incubated for 30 min with 50 µL of 1000 U/mL β-glucuronidase in phosphate buffer pH 6.8 (composed of 0.1 M sodium phosphate monobasic and 0.1 M sodium phosphate dibasic) at 37 °C. For the hydrolysis of sulfatase, 50 µL of 100 units/mL of sulfatase in an acetate buffer at pH 5.0 (composed of 0.1 M acetic acid and 0.1 M sodium acetate) was added into 50 µL of sample; the mixture was then incubated at 37 °C for 2 h. The reaction was stopped in all hydrolysis samples with 150 µL of cold methanol, and then protein precipitation was performed prior to LC–MS/MS analysis. However, due to unavailable standard of the conjugated forms (AP-glucuronide and […]). The quantitative analysis of conjugated metabolites was determined after the hydrolysis reaction by enzymatic digestion, and the free form was analyzed without hydrolysis. The conjugated standards of AP-glucuronide or AP-sulfate should be synthesized for determining the exact amount of the glucuronide or sulfate.

[4] = Cumulative urine excretion after single oral administration of A. paniculata extract; type: in vivo, human
Procedure: as §1, §2, §3

[5] = Freeze–thaw stability 5 cycles, 2.50 ng/mL (LQC)
[6] = Freeze–thaw stability 5 cycles, 500.00 ng/mL (MQC)
[7] = Freeze–thaw stability 5 cycles, 900.00 ng/mL (HQC)
[8] = Long term stability 3 months at − 80 °C, 2.50 ng/mL (LQC)
[9] = Long term stability 3 months at − 80 °C, 500.00 ng/mL (MQC)
[10] = Long term stability 3 months at − 80 °C, 900.00 ng/mL (HQC)
[11] = Post preparative stability 24 h at autosampler, 2.50 ng/mL (LQC)
[12] = Post preparative stability 24 h at autosampler, 500.00 ng/mL (MQC)
[13] = Post preparative stability 24 h at autosampler, 900.00 ng/mL (HQC)
[14] = Short term stability 8 h at room temperature, 2.50 ng/mL (LQC)
[15] = Short term stability 8 h at room temperature, 500.00 ng/mL (MQC)
[16] = Short term stability 8 h at room temperature, 900.00 ng/mL (HQC)

Which “%Accuracy” value [1, 5] does the source give for `C=C1CC[C@@H]2[C@](C)(CO)[C@H](O)CC[C@@]2(C)[C@@H]1C/C=C1/C(=O)OC[C@H]1O` [AP1, andrographolide] here?
The value was 97.99%.

What about the Measured concentration [1, 5] of the same compound?
Its Measured concentration is 2.45 ± 0.06 ng/mL.

And the “%Accuracy” value [1, 6]?
Its value is 93.01%.

And the Measured concentration [1, 6]?
Its Measured concentration is 465.07 ± 25.39 ng/mL.

And the “%Accuracy” value [1, 7]?
Its value is 95.28%.

What about the Measured concentration [1, 7] of the same compound?
The Measured concentration was 857.48 ± 19.46 ng/mL.

What about the “%Accuracy” value [1, 8] of the same compound?
Its value is 94.28%.

What about the Measured concentration [1, 8] of the same compound?
The Measured concentration was 2.36 ± 0.06 ng/mL.

What about the “%Accuracy” value [1, 9] of the same compound?
The value was 91.77%.

And the Measured concentration [1, 9]?
Its Measured concentration is 458.87 ± 8.67 ng/mL.

What about the “%Accuracy” value [1, 10] of the same compound?
Its value is 99.25%.

What about the Measured concentration [1, 10] of the same compound?
Its Measured concentration is 893.21 ± 22.77 ng/mL.

And the “%Accuracy” value [1, 11]?
The value was 93.81%.

And the Measured concentration [1, 11]?
Its Measured concentration is 2.35 ± 0.18 ng/mL.

And the “%Accuracy” value [1, 12]?
The value was 92.60%.

What about the Measured concentration [1, 12] of the same compound?
Its Measured concentration is 463.01 ± 10.97 ng/mL.

What about the “%Accuracy” value [1, 13] of the same compound?
The value was 99.52%.

And the Measured concentration [1, 13]?
Its Measured concentration is 895.66 ± 31.23 ng/mL.

And the “%Accuracy” value [1, 14]?
Its value is 93.65%.

And the Measured concentration [1, 14]?
The Measured concentration was 2.34 ± 0.15 ng/mL.

What about the “%Accuracy” value [1, 15] of the same compound?
The value was 89.06%.

And the Measured concentration [1, 15]?
Its Measured concentration is 445.29 ± 9.56 ng/mL.

And the “%Accuracy” value [1, 16]?
The value was 98.76%.

What about the Measured concentration [1, 16] of the same compound?
The Measured concentration was 888.87 ± 23.16 ng/mL.

What about the “%Accuracy” value [2, 5] of the same compound?
Its value is 94.39%.

What about the Measured concentration [2, 5] of the same compound?
Its Measured concentration is 2.36 ± 0.20 ng/mL.

What about the “%Accuracy” value [2, 6] of the same compound?
The value was 94.01%.

What about the Measured concentration [2, 6] of the same compound?
Its Measured concentration is 470.05 ± 32.15 ng/mL.

What about the “%Accuracy” value [2, 7] of the same compound?
The value was 98.78%.

What about the Measured concentration [2, 7] of the same compound?
Its Measured concentration is 889.00 ± 36.63 ng/mL.

And the “%Accuracy” value [2, 8]?
Its value is 95.31%.

What about the Measured concentration [2, 8] of the same compound?
Its Measured concentration is 2.38 ± 0.16 ng/mL.

What about the “%Accuracy” value [2, 9] of the same compound?
Its value is 91.78%.

And the Measured concentration [2, 9]?
The Measured concentration was 458.89 ± 20.53 ng/mL.

And the “%Accuracy” value [2, 10]?
The value was 98.08%.

And the Measured concentration [2, 10]?
The Measured concentration was 882.74 ± 14.22 ng/mL.

And the “%Accuracy” value [2, 11]?
The value was 94.23%.

What about the Measured concentration [2, 11] of the same compound?
Its Measured concentration is 2.36 ± 0.18 ng/mL.

And the “%Accuracy” value [2, 12]?
The value was 95.00%.

What about the Measured concentration [2, 12] of the same compound?
Its Measured concentration is 474.97 ± 23.30 ng/mL.

What about the “%Accuracy” value [2, 13] of the same compound?
The value was 99.66%.

And the Measured concentration [2, 13]?
The Measured concentration was 896.96 ± 17.62 ng/mL.

What about the “%Accuracy” value [2, 14] of the same compound?
The value was 93.15%.

And the Measured concentration [2, 14]?
The Measured concentration was 2.33 ± 0.06 ng/mL.

What about the “%Accuracy” value [2, 15] of the same compound?
Its value is 95.80%.

What about the Measured concentration [2, 15] of the same compound?
Its Measured concentration is 479.00 ± 32.64 ng/mL.

What about the “%Accuracy” value [2, 16] of the same compound?
The value was 101.88%.

What about the Measured concentration [2, 16] of the same compound?
The Measured concentration was 916.95 ± 32.00 ng/mL.

And the Cmax [3]?
The Cmax was 60.9 ± 26.5 ng/mL.

And the AUC(0-t) [3]?
Its AUC(0-t) is 210 ± 21.1 ng·h/mL.

What about the Vd/F [3] of the same compound?
The Vd/F was 4.58 ± 3.28 L/kg.

And the Tmax [3]?
Its Tmax is 0.8 h.

What about the half-life [3] of the same compound?
The half-life was 76.2 min.

What about the “AUC of both conjugated metabolites compared to the respective parent compounds” value [3] of the same compound?
Its value is “greater”.

And the Route of excretion [4]?
Its Route of excretion is “primarily excreted renally”.

What does the source list for `C=C1CC[C@@H]2[C@](C)(CO)[C@H](O)CC[C@@]2(C)[C@@H]1CCC1=CCOC1=O` [AP6, 14-deoxyandrographolide]?
%Accuracy [1, 5]: 96.87%; Measured concentration [1, 5]: 2.42 ± 0.04 ng/mL; %Accuracy [1, 6]: 94.79%; Measured concentration [1, 6]: 473.93 ± 25.58 ng/mL; %Accuracy [1, 7]: 98.93%; Measured concentration [1, 7]: 890.41 ± 25.49 ng/mL; %Accuracy [1, 8]: 88.89%; Measured concentration [1, 8]: 2.22 ± 0.09 ng/mL; %Accuracy [1, 9]: 92.43%; Measured concentration [1, 9]: 462.16 ± 14.34 ng/mL; %Accuracy [1, 10]: 98.92%; Measured concentration [1, 10]: 890.25 ± 20.07 ng/mL; %Accuracy [1, 11]: 100.85%; Measured concentration [1, 11]: 2.52 ± 0.08 ng/mL; %Accuracy [1, 12]: 96.39%; Measured concentration [1, 12]: 481.96 ± 2.97 ng/mL; %Accuracy [1, 13]: 101.27%; Measured concentration [1, 13]: 911.38 ± 18.09 ng/mL; %Accuracy [1, 14]: 101.65%; Measured concentration [1, 14]: 2.54 ± 0.21 ng/mL; %Accuracy [1, 15]: 90.47%; Measured concentration [1, 15]: 452.37 ± 10.16 ng/mL; %Accuracy [1, 16]: 100.71%; Measured concentration [1, 16]: 906.41 ± 47.83 ng/mL; %Accuracy [2, 5]: 95.48%; Measured concentration [2, 5]: 2.39 ± 0.18 ng/mL; %Accuracy [2, 6]: 94.03%; Measured concentration [2, 6]: 470.16 ± 19.65 ng/mL; %Accuracy [2, 7]: 102.77%; Measured concentration [2, 7]: 924.91 ± 7.49 ng/mL; %Accuracy [2, 8]: 93.89%; Measured concentration [2, 8]: 2.35 ± 0.07 ng/mL; %Accuracy [2, 9]: 90.88%; Measured concentration [2, 9]: 454.38 ± 21.26 ng/mL; %Accuracy [2, 10]: 99.27%; Measured concentration [2, 10]: 893.39 ± 24.76 ng/mL; %Accuracy [2, 11]: 96.20%; Measured concentration [2, 11]: 2.41 ± 0.13 ng/mL; %Accuracy [2, 12]: 93.94%; Measured concentration [2, 12]: 469.68 ± 35.58 ng/mL; %Accuracy [2, 13]: 101.31%; Measured concentration [2, 13]: 911.80 ± 10.76 ng/mL; %Accuracy [2, 14]: 95.56%; Measured concentration [2, 14]: 2.39 ± 0.15 ng/mL; %Accuracy [2, 15]: 91.90%; Measured concentration [2, 15]: 459.52 ± 16.67 ng/mL; %Accuracy [2, 16]: 102.42%; Measured concentration [2, 16]: 921.74 ± 21.18 ng/mL; Cmax [3]: 6.33 ± 1.18 ng/mL; AUC(0-t) [3]: 10.2 ± 2.9 ng·h/mL; Vd/F [3]: 1.93 ± 1.03 L/kg; Tmax [3]: 1.5 h; half-life [3]: 13.8 min; AUC of both conjugated metabolites compared to the respective parent compounds [3]: greater; Route of excretion [4]: primarily excreted renally
